Data published in paper PMC11676667, “Pharmacokinetics of Oral Cannabinoid Δ8-Tetrahydrocannabivarin and Its Main Metabolites in Healthy Participants” (Pharmaceuticals, 2024).
Like-named read-outs stand apart in the source and are kept apart here.

Test: Plasma pharmacokinetics after single oral dose of Δ8-THCV in MCT oil (LC-MS/MS, non-compartmental analysis)
Type: in vivo, human
Details: for concentration at 0.5 h / concentration at 1 h / concentration at 2 h / concentration at 4 h / concentration at 6 h / concentration at 8 h / AUC(0-t) / Cmax / MRT / Tmax: human; for concentration at 0.5 h / concentration at 1 h / concentration at 2 h / concentration at 4 h / concentration at 6 h / concentration at 8 h: oral; for AUC(0-t) / Cmax / MRT / Tmax: po; for MRT: read-out: MRT (mean residence time)
Method: The study was a two-phase, dose-ranging, placebo-controlled trial in 21 healthy participants to assess the safety, tolerability, PK, and PD of an oral formulation of Δ8-THCV. A detailed description of the study was published elsewhere. The study product was a medium-chain triglyceride (MCT) oil oral formulation of Δ8-THCV at a concentration of 50 mg/mL. […] MCT oil was used as placebo.
Twenty-one participants were enrolled in the clinical study and plasma samples from 15 participants were sent to our laboratory for pharmacokinetic evaluation. Of these, 3 participants were enrolled in Phase 1, an unblinded, placebo-controlled, single ascending dose design and 12 were enrolled in Phase 2, a double-blind, randomized, placebo-controlled, within-participant crossover design. At each study session, participants received one of the following oral doses: placebo, 12.5 mg, 25 mg, 50 mg, 100 mg, and 200 mg of the aforementioned Δ8-THCV formulation in MCT. Study visits were separated by a washout period of a minimum of one week and maximum of 28 days. Participants entered the research facility the night before the session and received the study product in the morning after a standardized high-fat, high-calorie breakfast. PK blood samples included in this analysis were collected prior to dosing and 0.5, 1, 2, 4, 6, and 8 h after dose. Immediately following collection into K2EDTA tubes, blood samples were placed on wet ice, centrifuged, and plasma was immediately frozen at −80 °C until shipment to the bioanalytical laboratory (iC42 Clinical Research and Development, University of Colorado, Aurora, CO, USA) on dry ice.
Plasma samples were analyzed using a validated high-performance liquid chromatography–tandem mass spectrometry (LC-MS/MS) assay. The assay included Δ8-THCV and its main metabolites 11-OH-Δ8-THCV and Δ8-THCV-COOH, Δ9-THCV and its main metabolite Δ9-THCV-COOH, and Δ9-THC and Δ8-THC as well as their main metabolites (Figure 3). The complete list of analyzed compounds and a summary of the key performance parameters of the assay are presented in Appendix A and Table A1 and Table A2. […] For the PK analysis, concentrations below the lower limit of quantification were set to 0 ng/mL. PK parameters were calculated using non-compartmental analysis (Phoenix WinNonlin version 8.4., Certara, Princeton, NJ, USA). Statistical analysis was carried out using GraphPad Prism (version 10, Boston, MA, USA).

[1] = plasma, 100 mg, 100 mg Δ8-THCV dose, Median (IQ Range)
[2] = plasma, 100 mg, 100 mg Δ8-THCV dose, Mean (SD, %CV)
[3] = plasma, 200 mg, 200 mg Δ8-THCV dose, Mean (SD, %CV)
[4] = plasma, 200 mg, 200 mg Δ8-THCV dose, Median (IQ Range)
[5] = plasma, 12.5 mg, 12.5 mg single oral Δ8-THCV in MCT oil, Mean (±SD)
[6] = plasma, 12.5 mg, 12.5 mg single oral Δ8-THCV in MCT oil, Median (Range)
[7] = plasma, 25 mg, 25 mg single oral Δ8-THCV in MCT oil, Mean (±SD)
[8] = plasma, 25 mg, 25 mg single oral Δ8-THCV in MCT oil, Median (Range)
[9] = plasma, 50 mg, 50 mg single oral Δ8-THCV in MCT oil, Mean (±SD)
[10] = plasma, 50 mg, 50 mg single oral Δ8-THCV in MCT oil, Median (Range)
[11] = plasma, 100 mg, 100 mg single oral Δ8-THCV in MCT oil, Mean (±SD)
[12] = plasma, 100 mg, 100 mg single oral Δ8-THCV in MCT oil, Median (Range)
[13] = plasma, 200 mg, 200 mg single oral Δ8-THCV in MCT oil, Mean (±SD)
[14] = plasma, 200 mg, 200 mg single oral Δ8-THCV in MCT oil, Median (Range)

## CCCc1cc(O)c2c(c1)OC(C)(C)[C@@H]1CC=C(C(=O)O)C[C@@H]21 [Δ8-THCV-COOH, 11-nor-9-carboxy-Δ8-THCV]
[1]
  concentration at 0.5 h: 1.7 ng/mL
  concentration at 1 h: 79.5 ng/mL
  concentration at 2 h: 275 ng/mL
  concentration at 4 h: 547 ng/mL
  concentration at 6 h: 497 ng/mL
  concentration at 8 h: 304 ng/mL
[2]
  concentration at 1 h: 202 ng/mL
  concentration at 2 h: 306 ng/mL
  concentration at 4 h: 556 ng/mL
  concentration at 6 h: 512 ng/mL
  concentration at 8 h: 319 ng/mL
[3]
  concentration at 0.5 h: 5.6 ng/mL
  concentration at 1 h: 158 ng/mL
  concentration at 2 h: 653 ng/mL
  concentration at 4 h: 1300 ng/mL
  concentration at 6 h: 1170 ng/mL
  concentration at 8 h: 917 ng/mL
[4]
  concentration at 0.5 h: 0 ng/mL
  concentration at 1 h: 108 ng/mL
  concentration at 2 h: 319 ng/mL
  concentration at 4 h: 1110 ng/mL
  concentration at 6 h: 1020 ng/mL
  concentration at 8 h: 855 ng/mL
[5]
  AUC(0-t): 398 ng·h/mL
  Cmax: 99 ng/mL
[6]
  AUC(0-t): 331 ng·h/mL
  Cmax: 101 ng/mL
plasma, 12.5 mg, 12.5 mg single oral Δ8-THCV in MCT oil, plasma, Mean (±SD)
  MRT: 4.9 h
plasma, 12.5 mg, 12.5 mg single oral Δ8-THCV in MCT oil, plasma, Mean (±SD), read-out: tmax
  Tmax: 4.9 h
plasma, 12.5 mg, 12.5 mg single oral Δ8-THCV in MCT oil, plasma, Median (Range)
  MRT: 4.9 h
plasma, 12.5 mg, 12.5 mg single oral Δ8-THCV in MCT oil, plasma, Median (Range), read-out: tmax
  Tmax: 4 h
[7]
  AUC(0-t): 642 ng·h/mL
  Cmax: 151 ng/mL
[8]
  AUC(0-t): 574 ng·h/mL
  Cmax: 116 ng/mL
plasma, 25 mg, 25 mg single oral Δ8-THCV in MCT oil, plasma, Mean (±SD)
  MRT: 4.8 h
plasma, 25 mg, 25 mg single oral Δ8-THCV in MCT oil, plasma, Mean (±SD), read-out: tmax
  Tmax: 4.6 h
plasma, 25 mg, 25 mg single oral Δ8-THCV in MCT oil, plasma, Median (Range)
  MRT: 4.6 h
plasma, 25 mg, 25 mg single oral Δ8-THCV in MCT oil, plasma, Median (Range), read-out: tmax
  Tmax: 4 h
[9]
  AUC(0-t): 1210 ng·h/mL
  Cmax: 324 ng/mL
[10]
  AUC(0-t): 1090 ng·h/mL
  Cmax: 275 ng/mL
plasma, 50 mg, 50 mg single oral Δ8-THCV in MCT oil, plasma, Mean (±SD)
  MRT: 5.3 h
plasma, 50 mg, 50 mg single oral Δ8-THCV in MCT oil, plasma, Mean (±SD), read-out: tmax
  Tmax: 5.3 h
plasma, 50 mg, 50 mg single oral Δ8-THCV in MCT oil, plasma, Median (Range)
  MRT: 5.3 h
plasma, 50 mg, 50 mg single oral Δ8-THCV in MCT oil, plasma, Median (Range), read-out: tmax
  Tmax: 6 h
[11]
  AUC(0-t): 3070 ng·h/mL
  Cmax: 756 ng/mL
[12]
  AUC(0-t): 3130 ng·h/mL
  Cmax: 699 ng/mL
plasma, 100 mg, 100 mg single oral Δ8-THCV in MCT oil, plasma, Mean (±SD)
  MRT: 4.8 h
plasma, 100 mg, 100 mg single oral Δ8-THCV in MCT oil, plasma, Mean (±SD), read-out: tmax
  Tmax: 4.7 h
plasma, 100 mg, 100 mg single oral Δ8-THCV in MCT oil, plasma, Median (Range)
  MRT: 4.6 h
plasma, 100 mg, 100 mg single oral Δ8-THCV in MCT oil, plasma, Median (Range), read-out: tmax
  Tmax: 4 h
[13]
  AUC(0-t): 6960 ng·h/mL
  Cmax: 1740 ng/mL
[14]
  AUC(0-t): 6000 ng·h/mL
  Cmax: 1900 ng/mL
plasma, 200 mg, 200 mg single oral Δ8-THCV in MCT oil, plasma, Mean (±SD)
  MRT: 5.1 h
plasma, 200 mg, 200 mg single oral Δ8-THCV in MCT oil, plasma, Mean (±SD), read-out: tmax
  Tmax: 5.3 h
plasma, 200 mg, 200 mg single oral Δ8-THCV in MCT oil, plasma, Median (Range)
  MRT: 5.1 h
plasma, 200 mg, 200 mg single oral Δ8-THCV in MCT oil, plasma, Median (Range), read-out: tmax
  Tmax: 6 h
plasma, across oral Δ8-THCV doses 12.5-200 mg, plasma, read-out: median time-to-maximum concentration (tmax), range across doses
  Tmax: 4.6 to 5.3 h
Of 504 plasma samples from 15 participants after oral Δ8-THCV
  number of positive plasma samples: 381
One subject after oral Δ8-THCV in MCT oil, Figure A1
  concentration in representative plasma sample: 1026 ng/mL
Oral Δ8-THCV
  median systemic exposure (plasma AUClast) relative to parent compound: 36 fold
  plasma concentration relative to Δ8-THCV, on average at each timepoint: 10 fold
Oral Δ8-THCV 12.5-200 mg, plasma
  increase of median AUClast every two-fold increase in the dose: 1.7- to 2.9 fold
